These results are taken from patent publication US20240238228A1, “COMPOSITIONS AND METHODS FOR TREATING ALLERGIES AND INFLAMMATORY CONDITIONS” (UNIVERSITY OF PITTSBURGH-OF THE COMMONWEALTH SYSTEM OF …, priority 2021, published 2024).

The assay relates to IL10-eGFP^+ MCs. As to the kind of experiment: IL-10-GFP expression in skin mast cells of VERT-X reporter mice. The format is in vivo, mouse. The following applies: with and without PCA induction. On the procedure: C6(Cg)-IL10^tm1.1.Karp/J (VERT-X) mice (Jackson Laboratories) were bred at the University of Pittsburgh. On d0, mice were treated with vehicle on one ear and IgE on the contralateral ear. On day 1, mice were treated with either NKA ([…]) on both ears or vehicle on both ears. Three hours later, PCA was induced. On day 2, mice were euthanized. Excised Ear tissue was digested in IMDM media (Life Technologies) containing collagenase D (Sigma, 1.0 mg/mL) and DNAase (Roche, 1.0 mg/mL) at 37 C for 45 minutes. Single cell homogenates were blocked with FcBlock and stained. In some experiments, avidin AlexaFluro488 was injected intradermally to label cutaneous mast cells were labelled in vivo. Mice were euthanized 7 days after injection.
In other methods, mast cells differentiated for 5-7 weeks (BMMCs) or 3-4 weeks (PMCs) were collected, blocked with FcBlock and stained with anti-FceRI PE (clone MAR-1, Biolegend), anti-CD117 eFluor 450 clone 2B8, ThermoFisher) and anti-NK2R Alexa Fluor 647 or rabbit IgG Alexa Fluor 647 isotype control (Cell Signaling Technology). […]

In the case of Neurokinin A [NKA], the “increase in percentage of IL10-eGFP^+ MCs” value is reported as “two-fold”.
